Read-outs that look alike come from different tables or passages of the source.
What was measured:
recombinant MaltOBP1 [1] = target: T1, recombinant MaltOBP1 (Monochamus alternatus, UniProt A6YIT8); assay: Competitive ligand-binding assay (1-NPN displacement); details: for Ki: Ki = [IC50]/(1 + [1-NPN]/K1-NPN), read-out: Ki (dissociation constant); for binding affinity to MaltOBP1 (in words): fluorescence competitive binding
Procedure: (§1) Ligand-binding assays were performed on a HORIBA FluoroMax®-4 Fluorescence spectrophotometer (HORIBA Scientific, United States) with a 1 cm light path quartz cuvette and 5 nm slits for both excitation and emission. The purified MaltOBP1 protein, served in the 1 cm light path quartz cuvette, was titrated with 1 nM 1-N-phenyl naphtylamine (1-NPN, Sigma, Riedstr, Steinheim, Germany) solution in methanol. The fluorescence intensity at the maximum emission wavelength of about 337 nm was linearized using the Scatchard equation ([Sideris et al., 1992]), and then binding affinity for MaltOBP1/1-NPN was calculated.
To assess the binding affinities of ligands to MaltOBP1, a mixture of 1-NPN and MaltOBP1 protein was titrated with 1 μM of each ligand dissolved in methanol. IC50 was obtained by data linearization, and the dissociation constant (Ki) was calculated following the equation: Ki = [IC50]/(1 + [1-NPN]/K1–NPN), where [1-NPN] is the free concentration of 1-NPN and K1–NPN is the dissociation constant of the protein/1-NPN complex ([Campanacci et al., 2001]), which was calculated from the binding curve using GraphPad Prism 5.01 (GraphPad Software, Inc.).

recombinant MaltOBP1 [2] = target: T1, recombinant MaltOBP1; assay: 1-NPN fluorescence binding assay (Scatchard); details: fluorescent probe titration, Scatchard linearization; read-out: dissociation constant of MaltOBP1/1-NPN
Procedure: as §1

[3] = competitive displacement of 1-NPN from MaltOBP1, ligands in methanol, read-out: IC50

T1 sequence (A6YIT8 entry or part of it): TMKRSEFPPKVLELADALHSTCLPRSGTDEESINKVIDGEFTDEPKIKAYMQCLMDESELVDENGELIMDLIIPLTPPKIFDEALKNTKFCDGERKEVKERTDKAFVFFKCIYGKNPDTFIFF

Compound | Ki (recombinant MaltOBP1 [1]) | IC50 (recombinant MaltOBP1 [1]; [3]) | binding affinity to MaltOBP1 (in words) (recombinant MaltOBP1 [1]) | Kd (recombinant MaltOBP1 [2]) | IC50 (recombinant MaltOBP1 [1])
CC1=CC(=O)[C@H]2C[C@@H]1C2(C)C [(−) -verbenone] | 37.4 µM | 63.1 µM | high binding affinity |  | 
c1ccc(Nc2cccc3ccccc23)cc1 [1-NPN, 1-N-phenyl naphtylamine] |  |  |  | 3.86 µM | 
C=C(C)[C@H]1CC=C(C)CC1 [(R)-(+)-limonene] | 12.8 µM | 21.7 µM | high binding affinity |  | 
C=CC(=C)CCC=C(C)C [myrcene] |  |  | no binding affinity |  | 
C=C1[C@H]2CC[C@H](C2)C1(C)C [comphene, Comphene] |  |  | no binding affinity |  | 
CC1=CCC2C(C1)C2(C)C (single isomer, unassigned; (+)) [(+)-3-carene] |  |  | no binding affinity |  | 
C=C1CCC2CC1C2(C)C (stereo not drawn) [β- Pinene] |  |  | high binding affinity |  | 39.3 µM
C=C1CC/C=C(\C)CC[C@@H]2[C@@H]1CC2(C)C [(−)-trans-caryophyllene] |  |  | high binding affinity |  | 7.01 µM
(+)-α-Pinene | 18.7 µM | 31.5 µM | high binding affinity |  | 

— article PMC7138900, “Characterization of MaltOBP1, a Minus-C Odorant-Binding Protein, From the Japanese Pine Sawyer Beetle, Monochamus alternatus Hope (Coleoptera: Cerambycidae)” (Frontiers in Physiology, 2020)
